# Earlier results in patent publication US9597313B2 (priority 2006, dated 2017).
# System: aflatoxin-N7-guanine adducts
# Details: 100 mg chlorophyllin three times a day for four months
substance,measurement,value
chlorophyllin,Reduction in median urinary levels of aflatoxin-N7-guanine adducts compared with placebo,55%
